Source: patent publication US20180264124A1, “DRUG COMPLEX” (Shimadzu Corporation, priority 2015, published 2018)
Ends that are not written are not given here.

System: HUVEC
Test: HUVEC growth inhibition test (WST-1 assay)
Details: 25 ng/mL VEGF, 24 hours

For “YT1-Cem: non-VEGF-binding helix-loop-helix peptide YT1-Cys (SEQ ID NO: 18) reacted with CemCH2-S-TNB; control complex (CAELAALEAELAALEGGGGGGGKLAALKAKLAALKA; also: Cem conjugated via the Cys (CemCH2-S-TNB reaction))”, the cell growth inhibition was “did not inhibit cell growth”.
